14 molecules from ChEMBL document CHEMBL1759901 (Bioorg Med Chem Lett, 2011) can be followed below.

Activity calls are given as the source filed them.

As usually defined, the IC50 is the concentration at which inhibition is half-maximal. The term logD denotes the decadic logarithm of the distribution of all forms, ionised or not, between an organic phase and buffer at a given pH. As usually defined, the clearance is a measure of how efficiently the substance is removed, as volume per time. For orientation: half-life means the time needed for the level to fall by half in the phase considered. Higher therefore signals slow decline. As a reminder, the bioavailability is dose-corrected exposure relative to a reference, in per cent. A lower bioavailability goes with little systemic uptake.

The species named for one series is Homo sapiens. As to the kind of experiment: Selectivity ratio of IC50 for human recombinant iNOS to IC50 for human recombinant eNOS.
The target in series [1] is T1, Nitric oxide synthase, inducible (Homo sapiens, UniProt P35228). As to the kind of experiment: Inhibition of human recombinant iNOS.
T1 sequence (P35228 whole entry): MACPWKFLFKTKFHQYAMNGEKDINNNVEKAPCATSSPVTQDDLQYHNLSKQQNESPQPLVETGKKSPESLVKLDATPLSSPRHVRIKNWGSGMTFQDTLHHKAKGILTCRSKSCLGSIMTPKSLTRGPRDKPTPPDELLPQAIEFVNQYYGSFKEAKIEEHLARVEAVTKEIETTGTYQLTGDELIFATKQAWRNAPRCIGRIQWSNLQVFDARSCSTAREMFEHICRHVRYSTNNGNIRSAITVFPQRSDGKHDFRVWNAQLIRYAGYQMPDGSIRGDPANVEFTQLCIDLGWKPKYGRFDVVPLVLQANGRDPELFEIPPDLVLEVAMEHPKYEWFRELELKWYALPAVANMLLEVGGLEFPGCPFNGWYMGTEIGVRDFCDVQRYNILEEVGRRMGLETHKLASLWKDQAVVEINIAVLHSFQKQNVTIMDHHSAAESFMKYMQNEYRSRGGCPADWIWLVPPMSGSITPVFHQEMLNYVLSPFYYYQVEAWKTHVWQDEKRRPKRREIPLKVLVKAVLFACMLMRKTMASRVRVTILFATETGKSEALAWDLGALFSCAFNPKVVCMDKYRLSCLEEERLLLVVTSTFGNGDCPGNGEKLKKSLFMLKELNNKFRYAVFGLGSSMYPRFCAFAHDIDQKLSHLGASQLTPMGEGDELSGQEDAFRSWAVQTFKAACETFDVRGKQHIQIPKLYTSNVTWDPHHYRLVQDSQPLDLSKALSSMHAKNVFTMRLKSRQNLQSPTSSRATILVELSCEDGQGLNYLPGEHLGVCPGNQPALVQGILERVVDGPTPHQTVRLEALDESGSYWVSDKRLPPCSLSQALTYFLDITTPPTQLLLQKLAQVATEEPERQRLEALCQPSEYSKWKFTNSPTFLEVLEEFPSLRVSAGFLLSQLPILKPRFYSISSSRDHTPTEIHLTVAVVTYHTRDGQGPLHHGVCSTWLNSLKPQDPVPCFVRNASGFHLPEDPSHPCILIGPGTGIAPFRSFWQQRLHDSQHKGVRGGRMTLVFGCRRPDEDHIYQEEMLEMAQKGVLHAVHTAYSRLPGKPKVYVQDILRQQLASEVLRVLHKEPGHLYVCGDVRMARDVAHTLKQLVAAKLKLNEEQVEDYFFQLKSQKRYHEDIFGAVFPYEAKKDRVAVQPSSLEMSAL
The target of series [2] is Sodium-dependent noradrenaline transporter (Homo sapiens, UniProt P23975). As to the kind of experiment: Inhibition of NET.
Chain of Sodium-dependent noradrenaline transporter (P23975 whole entry): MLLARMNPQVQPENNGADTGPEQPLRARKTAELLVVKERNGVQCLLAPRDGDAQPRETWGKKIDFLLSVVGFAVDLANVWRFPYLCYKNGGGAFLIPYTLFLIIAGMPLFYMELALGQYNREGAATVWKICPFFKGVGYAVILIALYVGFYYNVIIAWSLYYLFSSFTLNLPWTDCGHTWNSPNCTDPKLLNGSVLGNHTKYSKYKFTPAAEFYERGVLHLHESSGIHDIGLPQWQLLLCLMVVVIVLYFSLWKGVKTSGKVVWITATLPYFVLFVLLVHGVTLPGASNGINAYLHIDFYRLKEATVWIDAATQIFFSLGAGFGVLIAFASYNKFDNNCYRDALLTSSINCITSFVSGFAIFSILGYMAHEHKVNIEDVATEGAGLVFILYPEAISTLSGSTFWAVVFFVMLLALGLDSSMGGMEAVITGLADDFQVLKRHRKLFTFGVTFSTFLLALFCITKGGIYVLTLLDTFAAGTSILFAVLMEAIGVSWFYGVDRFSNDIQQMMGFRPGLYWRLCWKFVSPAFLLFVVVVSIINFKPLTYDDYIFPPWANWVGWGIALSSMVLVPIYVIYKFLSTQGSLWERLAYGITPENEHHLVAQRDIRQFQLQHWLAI
Series [3] deals with Sodium-dependent serotonin transporter (Homo sapiens, UniProt P31645). Kind of series: Inhibition of serotonin transporter.
Chain of Sodium-dependent serotonin transporter (P31645 whole entry): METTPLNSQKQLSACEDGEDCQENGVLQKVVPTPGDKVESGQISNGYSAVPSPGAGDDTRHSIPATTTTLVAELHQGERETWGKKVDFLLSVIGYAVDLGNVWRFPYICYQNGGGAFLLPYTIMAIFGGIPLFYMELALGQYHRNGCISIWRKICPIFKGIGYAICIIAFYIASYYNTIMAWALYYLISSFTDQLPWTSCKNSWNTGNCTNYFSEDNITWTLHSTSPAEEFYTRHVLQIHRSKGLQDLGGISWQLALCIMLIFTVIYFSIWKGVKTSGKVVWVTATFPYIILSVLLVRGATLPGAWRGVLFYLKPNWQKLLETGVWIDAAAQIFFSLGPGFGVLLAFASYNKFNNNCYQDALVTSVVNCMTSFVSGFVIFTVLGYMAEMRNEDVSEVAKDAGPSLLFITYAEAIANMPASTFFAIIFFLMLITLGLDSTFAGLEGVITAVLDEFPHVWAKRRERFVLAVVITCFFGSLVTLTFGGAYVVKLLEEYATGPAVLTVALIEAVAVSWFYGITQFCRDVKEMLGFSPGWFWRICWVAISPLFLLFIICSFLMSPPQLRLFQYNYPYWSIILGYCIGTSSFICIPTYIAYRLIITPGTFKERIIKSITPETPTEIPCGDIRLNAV
A further series addresses Cytochrome P450 2D6 (Homo sapiens, UniProt P10635). Kind of series: Inhibition of CYP2D6. The class given is ADME.
The target of series [4] is Voltage-gated inwardly rectifying potassium channel KCNH2 (Homo sapiens, UniProt Q12809). Kind of series: Inhibition of human ERG.
Chain of Voltage-gated inwardly rectifying potassium channel KCNH2 (Q12809 whole entry): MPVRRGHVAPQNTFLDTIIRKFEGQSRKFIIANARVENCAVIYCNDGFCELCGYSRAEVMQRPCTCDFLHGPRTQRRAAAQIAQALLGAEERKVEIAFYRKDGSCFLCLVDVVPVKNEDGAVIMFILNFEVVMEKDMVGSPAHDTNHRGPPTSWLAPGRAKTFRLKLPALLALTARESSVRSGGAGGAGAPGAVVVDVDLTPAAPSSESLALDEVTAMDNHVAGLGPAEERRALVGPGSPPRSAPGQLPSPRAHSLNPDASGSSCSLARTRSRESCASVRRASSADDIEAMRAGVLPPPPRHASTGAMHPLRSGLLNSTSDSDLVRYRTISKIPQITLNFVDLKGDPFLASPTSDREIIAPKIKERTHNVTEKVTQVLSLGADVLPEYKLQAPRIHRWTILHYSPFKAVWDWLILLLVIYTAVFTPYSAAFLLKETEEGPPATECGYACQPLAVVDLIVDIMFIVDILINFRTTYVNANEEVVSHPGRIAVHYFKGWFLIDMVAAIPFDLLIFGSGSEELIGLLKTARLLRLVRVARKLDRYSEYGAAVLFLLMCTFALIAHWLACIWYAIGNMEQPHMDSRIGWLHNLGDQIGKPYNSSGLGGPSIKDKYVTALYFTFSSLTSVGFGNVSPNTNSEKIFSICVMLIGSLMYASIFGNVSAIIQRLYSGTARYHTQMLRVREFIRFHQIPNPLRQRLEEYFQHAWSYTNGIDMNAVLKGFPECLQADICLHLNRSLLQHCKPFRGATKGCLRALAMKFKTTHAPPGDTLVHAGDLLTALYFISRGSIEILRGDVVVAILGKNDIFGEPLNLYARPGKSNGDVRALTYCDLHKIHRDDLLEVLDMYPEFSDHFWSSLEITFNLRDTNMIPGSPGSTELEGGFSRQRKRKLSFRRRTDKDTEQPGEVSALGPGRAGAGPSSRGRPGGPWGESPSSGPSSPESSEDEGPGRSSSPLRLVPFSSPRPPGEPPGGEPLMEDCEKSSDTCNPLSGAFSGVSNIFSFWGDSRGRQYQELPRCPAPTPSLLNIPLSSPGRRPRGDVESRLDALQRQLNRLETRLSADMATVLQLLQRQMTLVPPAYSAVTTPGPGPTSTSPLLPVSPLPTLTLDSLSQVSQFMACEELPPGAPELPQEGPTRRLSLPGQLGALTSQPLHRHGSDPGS
Series [5] in a line: Lipophilicity, log D of the compound. To be noted: octanol/water. The class given is physicochemical.
For series [6], the target named is T1, Nitric oxide synthase, inducible. Kind of series: Inhibition of iNOS in intact human DLD1 cells assessed as nitric oxide production. The class given is cell-based, DLD-1.
Series [7] has as its system Hepatocyte. As to the kind of experiment: Metabolic stability in human hepatocytes assessed as per 10^6 cells. The class given is ADME, cell-based.
Series [8] in a line: Metabolic stability in human microsomes assessed as per mg of tissue. The class given is ADME, Microsome.
Series [9] can be described thus: Clearance in iv dosed rat. The class given is ADME, organism-based. The conditions noted are these: in vivo.
The nature of series [10]: Volume of distribution at steady state in iv dosed rat. The class given is ADME, organism-based. The conditions noted are these: in vivo, read-out: Vdss.
Series [11] can be described thus: Half life in iv dosed rat. The class given is ADME, organism-based. The conditions noted are these: in vivo.
Series [12] in a line: Oral bioavailability in rat. The class given is ADME, organism-based. To be noted: in vivo.
Series [13] deals with Hepatocyte. As to the kind of experiment: Metabolic stability in rat hepatocytes assessed as per 10^6 cells. The class given is ADME, cell-based.
Series [14] relates to Rattus norvegicus. As to the kind of experiment: Analgesic activity in Dark Agouti rat collagen-induced arthritis model at 75 umol/kg bid. The class given is functional, organism-based.
In series [15] the test system is Rattus norvegicus. As to the kind of experiment: Analgesic activity in Dark Agouti rat collagen-induced arthritis model assessed as reduction in inflammation at 75 umol/kg bid by histological analysis. The class given is functional, organism-based.
Series [16] has as its system Rattus norvegicus. Kind of series: Analgesic activity in Dark Agouti rat collagen-induced arthritis model assessed as reduction in erosion scores at 75 umol/kg bid by histological analysis. The class given is functional, organism-based.

Chain of Cytochrome P450 2D6 (P10635 whole entry): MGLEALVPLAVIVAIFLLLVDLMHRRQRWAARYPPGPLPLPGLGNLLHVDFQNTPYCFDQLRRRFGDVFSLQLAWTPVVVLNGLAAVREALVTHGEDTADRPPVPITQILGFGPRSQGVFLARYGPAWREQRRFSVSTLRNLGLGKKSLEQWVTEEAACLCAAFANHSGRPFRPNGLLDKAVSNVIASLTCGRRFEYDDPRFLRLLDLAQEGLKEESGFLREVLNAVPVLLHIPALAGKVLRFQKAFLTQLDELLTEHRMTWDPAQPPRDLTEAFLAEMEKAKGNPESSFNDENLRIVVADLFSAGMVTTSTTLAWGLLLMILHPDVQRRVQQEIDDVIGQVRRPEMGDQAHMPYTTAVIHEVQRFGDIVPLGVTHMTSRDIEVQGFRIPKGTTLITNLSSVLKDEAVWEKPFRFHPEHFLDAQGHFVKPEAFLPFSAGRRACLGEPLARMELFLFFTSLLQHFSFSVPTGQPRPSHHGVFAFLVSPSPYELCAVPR

Regarding `N#Cc1ccc(Cl)cc1O[C@H](CCN)c1ccccc1.O=C(O)C(=O)O`, in the series filed under Homo sapiens, the Ratio IC50 is greater than 10000. For the same molecule, the half-maximal inhibitory concentration (IC50) in series [1] was 4 nM; in series [2] (read-out: IC50) it was 15000 nM; in series [3] (read-out: IC50) it was 2100 nM; on Cytochrome P450 2D6 (read-out: IC50), 400 nM; in series [4] it was “Not Active”; in series [6] (read-out: IC50), 900 nM. In series [5], this molecule showed a pH-dependent lipophilicity (logD) of 0.8.

As to `N#Cc1ccc(Cl)cc1S[C@H](CCN)c1ccccc1.O=C(O)/C=C/C(=O)O`, the IC50 in series [1] was 4 nM; in series [2] (read-out: IC50), 17000 nM; in series [3] (read-out: IC50), 6700 nM; on Cytochrome P450 2D6 (read-out: IC50), 4100 nM; in [4], “Not Active”; in series [6] (read-out: IC50), […].

Turning to `N#Cc1ccc(C(=O)N2CCC3(CC2)N=C(N)c2c(F)ccc(F)c2N3)cn1`, the IC50 result was “Not Active” in series [2], “Not Active” in series [3], “Not Active” at Cytochrome P450 2D6 and 100 nM in [4] (read-out: IC50). In addition, the Stability in the series on Hepatocyte [7] was less than 3 µL/min; in series [8] it was “Unstable”; in the series on Hepatocyte [13], 5 µL/min. This molecule also showed a clearance in [9] of 57 mL/min/kg. For the same molecule, the Vd in series [10] is 4.5 L/kg. In addition, the half-life in series [11] was 1.1 h. In [12], this molecule came in with a bioavailability of 75%. In [5], this molecule yielded a pH-dependent lipophilicity (logD) of 0.79.

In the case of `CNCC[C@@H](Oc1cc(C(F)(F)F)ccc1C#N)c1ccccc1.Cl`, in the series filed under Homo sapiens, the Ratio IC50 was determined as 1400. In addition, the 50% inhibitory concentration (IC50) in [1] was 71 nM; in [2] (read-out: IC50), 28000 nM; in series [3] (read-out: IC50) it was 10000 nM; at Cytochrome P450 2D6 (read-out: IC50), 1600 nM; in series [4] it was “Not Active”; in series [6] (read-out: IC50), 2700 nM. The logD in series [5] came to 1.3.

As for `N#Cc1cc(F)c(Cl)cc1O[C@H](CCN)c1ccccc1.O=C(O)C(=O)O`, in the series filed under Homo sapiens, the Ratio IC50 is greater than 10000. Moreover, the IC50 in series [1] was 6 nM; in series [2] (read-out: IC50) it was 16000 nM; in [3] (read-out: IC50), 4400 nM; at Cytochrome P450 2D6 (read-out: IC50), 340 nM; in series [4] (read-out: IC50), greater than 10000 nM; in [6] (read-out: IC50), 700 nM. Besides, the Stability in the series on Hepatocyte [7] was less than 1 µL/min; in series [8] it was 6 µL/min; in the series on Hepatocyte [13], 8.9 µL/min. Also, the clearance in [9] turned out to be 49 mL/min/kg. Further, in series [10], the Vd came out at 13 L/kg. The half-life in series [11] was 4.3 h. This molecule also displayed a bioavailability in [12] of 57%. In series [5], this molecule displayed a log distribution coefficient (logD) of 0.8. In addition, the result in the series with Rattus norvegicus [14], in the series on Rattus norvegicus [15] and in the series on Rattus norvegicus [16] was Active.

For the molecule `CCC(CCNC)Oc1cc(Cl)ccc1C#N.Cl` (racemic), the Ratio IC50 in the series listed under Homo sapiens is 170. Also, the IC50 in [1] was 51 nM; in series [2] (read-out: IC50), 7100 nM; in series [3] (read-out: IC50), 44000 nM; on Cytochrome P450 2D6 (read-out: IC50), 400 nM; in series [4], “Not Active”; in [6] (read-out: IC50) it was 3600 nM. In series [5], the logD is 0.4.

As to `NCC(Oc1cc(Cl)ccc1Cl)c1ccccc1` (stereo not drawn), the Ratio IC50 in the series filed under Homo sapiens was greater than 53. Further, the IC50 was 1900 nM in [1]; “Not Active” in series [2]; “Not Active” in series [3]; “Not Active” at Cytochrome P450 2D6; “Not Active” in series [4]; “Not Active” in series [6] (dld-1).

Consider `CNCC[C@@H](Oc1cc(OC)ccc1C#N)c1ccccc1.O=C(O)C(=O)O`, for which the IC50 in series [1] is 110 nM; in series [2] (read-out: IC50), 12000 nM; in [3] (read-out: IC50) it was 5700 nM; on Cytochrome P450 2D6 (read-out: IC50) it was 300 nM; in series [4], “Not Active”; in series [6] (read-out: IC50) it was 9500 nM. In [5], this molecule came in with a pH-dependent lipophilicity (logD) of 0.9.

Turning to `CNCC[C@@H](Oc1cc(Cl)ccc1Cl)c1ccccc1.O=C(O)/C=C/C(=O)O`, the Ratio IC50 in the series listed under Homo sapiens was greater than 4500. Also, the concentration for half-maximal inhibition (IC50) in [1] is 22 nM; on Cytochrome P450 2D6 it was “Not Active”; in series [4] it was “Not Active”; in [6] (read-out: IC50) it was 8700 nM.

Consider `CNCC[C@@H](Oc1cc(Cl)ccc1C#N)c1ccccc1.Cl`, for which the IC50 in series [1] is 9 nM; in series [2] (read-out: IC50), 500 nM; in [3] (read-out: IC50), 4500 nM; on Cytochrome P450 2D6 (read-out: IC50), 1000 nM; in series [6] (read-out: IC50) it was 700 nM. The Stability in the series with Hepatocyte [7] was determined as 1.4 µL/min; in series [8], 4 µL/min; in the series with Hepatocyte [13], 54 µL/min. The molecule also registered a clearance in [9] of 94 mL/min/kg. Also, the Vd in series [10] was determined as 6.6 L/kg. Besides, the half-life in series [11] is 1.3 h. In [5], this molecule showed a log distribution coefficient (logD) of 1.7.

`N#Cc1cc(Cl)ccc1O[C@H](CCN)c1ccccc1.O=C(O)/C=C/C(=O)O`: the Ratio IC50 in the series filed under Homo sapiens was determined as 100. The IC50 in [1] was 960 nM; in series [2], “Not Active”; in [3] it was “Not Active”; on Cytochrome P450 2D6, “Not Active”; in [4], “Not Active”; in [6] (dld-1), “Not Active”. Besides, the logD in series [5] was determined as 0.9.

On to `N#Cc1ccc(C(F)(F)F)nc1O[C@H](CCN)c1ccno1.O=C(O)C(=O)O`, for which the IC50 in [1] was 5.4 nM; in series [2] (read-out: IC50), greater than 100000 nM; in series [3] (read-out: IC50) it was 70000 nM; at Cytochrome P450 2D6 (read-out: IC50), greater than 14000 nM; in [4] (read-out: IC50) it was greater than 10000 nM; in [6] (read-out: IC50) it was 720 nM. The Vd in series [10] was determined as 3.4 L/kg. Further, in series [12], the bioavailability stood at 49%. In [5], this molecule gave a log distribution coefficient (logD) of -0.5.

Regarding `Cc1ccc(C#N)c(S[C@H](CCN)c2ccccc2)n1.O=C(O)/C=C/C(=O)O`, the Ratio IC50 in the series listed under Homo sapiens was greater than 10000. Besides, the 50% inhibitory concentration (IC50) in [1] was 4 nM; in series [2] (read-out: IC50), 7400 nM; in series [3] (read-out: IC50), 2600 nM; at Cytochrome P450 2D6 (read-out: IC50), 5000 nM; in [4], “Not Active”; in series [6] (read-out: IC50) it was 600 nM. In [5], this molecule had a logD of 0.7.

`Cc1ccnc(NCc2ccccc2)c1`: the Ratio IC50 in the series filed under Homo sapiens stood at 12. For the same molecule, in series [1], the concentration for half-maximal inhibition (IC50) was 790 nM.
